Source: patent publication US7018836B1, “P-TEFb compositions, methods and screening assays” (priority 1996, dated 2006)

Experiments:
[1] = target: T1, TAK (Homo sapiens, UniProt P50750); test: TAK activity assay (GST-Tat pull-down, CTD3 peptide); type: biochemical; conditions: in a manner similar to P-TEFb
T1 construct: Nuclear extract, cytoplasmic extract, or fractions containing partially purified TAK were incubated with glutathione-Sepharose beads containing GST-Tat fusion proteins; endogenous in cells; host or cells: HeLa cell extract or partially purified HeLa cytoplasmic fraction; GST-Tat made in E. coli DE3 (BL21)
T1 sequence (P50750 whole entry, the tested form may be a part): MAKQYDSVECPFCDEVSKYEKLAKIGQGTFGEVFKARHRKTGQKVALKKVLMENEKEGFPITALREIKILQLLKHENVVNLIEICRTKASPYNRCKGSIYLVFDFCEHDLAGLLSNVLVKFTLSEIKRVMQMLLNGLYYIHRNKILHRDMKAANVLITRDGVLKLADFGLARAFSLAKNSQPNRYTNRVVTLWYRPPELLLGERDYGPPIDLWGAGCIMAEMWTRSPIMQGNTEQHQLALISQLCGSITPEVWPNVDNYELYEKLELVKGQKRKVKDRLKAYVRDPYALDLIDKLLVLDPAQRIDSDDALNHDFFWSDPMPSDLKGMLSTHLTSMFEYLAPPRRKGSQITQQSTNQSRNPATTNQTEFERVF
T1 sequence (O60563 whole entry, further chain, the tested form may be a part): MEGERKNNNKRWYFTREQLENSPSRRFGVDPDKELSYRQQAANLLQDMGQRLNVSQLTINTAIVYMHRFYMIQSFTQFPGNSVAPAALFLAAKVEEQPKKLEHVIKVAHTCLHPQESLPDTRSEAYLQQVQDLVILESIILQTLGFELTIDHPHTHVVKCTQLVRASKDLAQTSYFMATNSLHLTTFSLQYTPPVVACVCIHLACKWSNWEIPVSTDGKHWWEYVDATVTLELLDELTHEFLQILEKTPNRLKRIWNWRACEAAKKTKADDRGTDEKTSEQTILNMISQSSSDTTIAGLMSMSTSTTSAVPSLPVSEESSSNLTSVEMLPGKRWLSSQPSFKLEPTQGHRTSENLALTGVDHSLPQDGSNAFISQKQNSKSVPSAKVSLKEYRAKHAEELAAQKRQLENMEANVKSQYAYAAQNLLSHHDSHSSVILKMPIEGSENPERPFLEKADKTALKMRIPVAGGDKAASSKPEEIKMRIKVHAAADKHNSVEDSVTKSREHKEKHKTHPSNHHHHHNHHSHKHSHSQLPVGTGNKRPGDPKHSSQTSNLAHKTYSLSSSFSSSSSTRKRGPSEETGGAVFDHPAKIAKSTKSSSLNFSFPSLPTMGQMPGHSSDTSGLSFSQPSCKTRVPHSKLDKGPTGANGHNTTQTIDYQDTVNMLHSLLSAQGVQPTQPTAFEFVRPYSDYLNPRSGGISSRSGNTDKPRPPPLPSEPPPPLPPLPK
T1 sequence (P04608 1-48, further chain): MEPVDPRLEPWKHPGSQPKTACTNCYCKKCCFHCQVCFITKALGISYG
Description: Preparation of Tat fusion proteins and the TAK pull-down assay were conducted as described by Herrmann and Rice (Herrmann and Rice, 1993; 1995) with modifications as described. Nuclear extract, cytoplasmic extract, or fractions containing partially purified TAK were incubated with glutathione-Sepharose beads containing GST-Tat fusion proteins for 1 hour at 4° C. with gentle rocking. DE3 (BL21) bacteria containing the GST-Tat expression vectors were obtained from NIH AIDS Research and Reference Reagent Program. For maximum sensitivity, GST-Tat48Δ was used unless otherwise specified. The beads (30 μl, 50% slurry) were washed 6 to 8 times with 1 ml EBCD buffer (50 mM Tris, pH 8.0, 120 mM NaCl, 0.5% Nonidet P-40, and 5 mM DTT) containing 0.03% SDS, then 2 to 4 times with Tat kinase buffer (TKB/Mg: 50 mM Tris-HCl, pH 7.6, 5 mM DTT, 5 mM MnCl2, and 4 mM MgCl2), and brought to 50 μl with TKB/Mg buffer and kinase assay mix. The final reaction contained 2 μM ATP, 10 μCi y-^32P-ATP (ICN, 3000 Ci/mmole), and 50–100 μM of CTD trimer peptide CTD3 ([…], SEQ ID NO:68). Reactions were incubated at 25° C. for 40 minutes, stopped by boiling in Laemmli sample buffer, and resolved by electrophoresis in 15% polyacrylamide: bis-acrylamide (30%:0.15%) gels.

[2] = test system: HeLa cells; conditions: added to HeLa cells; cited from earlier work
[3] = test system: DRB-sensitive runoff transcription in HeLa nuclear extract (P-TEFb-like activity); test: Pulse-chase transcription in HeLa nuclear extract; type: biochemical, human
Description: A pulse-chase protocol was used in which the template DNA was preincubated with the extract, 20 mM HEPES, pH 7.6 and 10 mM MgCl2 for 20 min at 30° C. Nucleotides, including [α-^32P]CTP were added to start the pulse; 2 min later, excess cold CTP was added to initiate the chase. Reactions were stopped after the indicated chase times. During the pulse, 10 μl reaction mixtures contained the following: 20 mM HEPES (pH 7.6), 10 mM MgCl2, 600 μM each GTP, UTP and ATP, 5 μCi of [α-^32P]CTP (˜1 μM CTP), 66 mM KCl, 10–40 μg/ml DNA template, and 3 μl of HeLa nuclear extract. For the chase, unlabeled CTP was added to bring the total concentration of CTP to 1.2 mM and the final reaction volume to 12 μl. Reaction mixtures containing 250 mM KCl, were supplemented with KCl at the beginning of the chase. Drosophila P-TEFb was added to the preincubation mixture where indicated. Reactions were stopped by adding 200 μl of stop solution (1% Sarkosyl, 50 mM Tris, pH 8.0, 50 mM EDTA, 100 mM NaCl and 100 μg/ml tRNA). The reaction mixtures were phenol extracted and the nucleic acids were ethanol precipitated, washed with 70% ethanol, dried and analyzed by gel electrophoresis.
For polyacrylamide gel electrophoresis, samples were resuspended in […] of 0.25×TBE (1×TBE contains 89 mM Tris base, 89 mM Boric acid and 2 mM EDTA) and 8 M urea, heated for 3 min at 85° C. and analyzed in 6% acrylamide-8 M urea-1×TBE gels. Denaturing agarose gel electrophoresis was performed by resuspending samples in 50% formamide-2.2 M formaldehyde-1× morpholinepropanesulfonic acid (MOPS) buffer (20 mM MOPS, pH 7.0; 5 mM sodium acetate, 1 mM EDTA) and heating the mixture at 60° C. for 5 min. Samples were resolved in a 2% agarose gel containing 2.2 M formaldehyde and IX MOPS buffer.

[4] = test system: Drosophila P-TEFb; type: biochemical; conditions: for inhibition of P-TEFb CTD kinase at higher ATP: 100 μM ATP
Description: 0.4 μl of purified RNA polymerase II and various protein samples were mixed in 18 μl of 55 mM HMK. The reaction was then initiated by the addition of 2 μl of a solution containing 2 μCi of [γ-^32P]ATP (ICN) and unlabeled ATP at 10 μM, or only unlabeled ATP at concentrations from 1 to 100 μM or other NTPs or dNTPs at concentrations of 1 to 100 μM. Reactions were incubated for the indicated times at 23° C. and then terminated with SDS loading buffer. Samples were analyzed on a 6–15% SDS polyacrylamide gel which was silver stained, dried and subjected to autoradiography if the assay contained label.

[5] = test system: productive elongation (runoff transcripts) by RNA polymerase II in KcN; type: biochemical, Drosophila; conditions: for IC50: read-out: 50% inhibition point of runoff transcription

## CNCCNS(=O)(=O)c1cccc2cnccc12 [H-8]
[1]
  TAK activity: inhibited
[2]
  amount of RNA polymerase IIo: rapid decrease
[3]; HeLa NE, 2 min pulse/45 sec chase, read-out: 50% inhibition point of appearance of runoff
  IC50: 20 µM
[4]; 10 μM ATP
  amount of H-8 required relative to DRB to inhibit the kinase to the same level: approximately 10 times
[4]
  inhibition of P-TEFb CTD kinase at higher ATP: less effective
[5]; even at concentrations that severely inhibited runoff
  effect on initiation and abortive transcription: unaffected
[5]
  IC50: 7 µM

## OC[C@H]1O[C@@H](n2cnc3cc(Cl)c(Cl)cc32)[C@H](O)[C@@H]1O [DRB, 5,6-dichloro-1-β-D-ribofuranosylbenzimidazole]
[1]
  TAK activity: inhibited
[2]
  amount of RNA polymerase IIo: rapid decrease
[3]
  DRB concentration at which maximum inhibition occurred: 30 µM
  formation of DRB-insensitive processive elongation complexes: did not inhibit
  fraction of runoff generated that was DRB-sensitive: 60%
[4]; 10 μM ATP, DRB at 10 μM
  inhibition of P-TEFb CTD kinase: strongly inhibited
[4]; 20 μM DRB
  sensitivity of CTD kinase activity of P-TEFb: sensitive
[4]
  inhibition of P-TEFb CTD kinase at higher ATP: less effective
[5]
  fraction of runoff generated that was DRB-sensitive: greater than 95%
  IC50: 0.7 µM
